Series [1] in a line: Plasma pharmacokinetics of Ostabolin-C formulations in female rats, single 200 μg/kg SC, IM, IV. The class given is in vivo. The note with it: rat; for Vd: iv. On the procedure: Formulations were prepared once only as follows: The bulk freeze-dried peptide was dissolved in 0.01 M acetic acid (supplied by Fisher Scientific, Loughborough, UK) in a 1:1 ratio, re-aliquotted into dosing vials and deep frozen (approximately −70° C.). The vials were freeze-dried at <−20° C. and stored frozen until required. The freeze-dried aliquots for injection were re-constituted with water for injection (supplied by Animalcare Ltd, York, UK). The peptide was dissolved in an appropriate volume of purified water to an approximate concentration of 2 to 3 mg/mL. Phosphate buffered saline (pH 7.4) was added to give the final required concentration (at approximately pH 7.2). The capped vial(s) were mixed thoroughly to ensure the peptide was fully dissolved. Aseptic techniques and glass vials were used throughout dose preparation. The dose was not sterile filtered. […] The calculated amounts of mannitol, sodium acetate trihydrate and glacial acetic acid were weighed and then dissolved in the correct amount of water for injection. The test article was weighed, added to the solution and stirred to dissolve. The pH was adjusted to 4.5 with 0.1N NaOH or HCl (supplied by Covance, Harrogate) depending on initial pH. Water was added to obtain the required volume.
The calculated amount of lipoic acid was weighed and transferred to a suitable container and then dispersed with water for injection. The pH was adjusted to 7.7 with 1N NaOH (supplied by BDH Laboratory Supplies, a division of Merck Ltd, Poole, UK). The test article was weighed, added and stirred to dissolve. The pH was adjusted to 7.5 with 1N NaOH. Propylene glycol was added to obtain the correct volume.
The calculated amount of DL-Methionine was weighed and transferred to a suitable container and dispersed in water for injection. The test article was weighed and added to the solution. The pH was adjusted to 7.5 with 0.1N NaOH. Ethanol was added to make the required volume.

Series [2] relates to post-menopausal women with low bone mineral density. To be noted: human, in vivo.
Source text: A four month Phase II clinical study was undertaken to investigate the safety, tolerability and efficacy of Ostabolin-C™ in post-menopausal women with low bone mineral density (BMD). […] The clinical protocol is a 16-week phase II randomized, double-blind, placebo-controlled, parallel group, dose finding study to investigate the safety, tolerability and efficacy of Ostabolin-C™ in post-menopausal women with low bone mineral density (BMD). In this study, 261 patients underwent four months of daily dosing of placebo and four active groups. The active groups included daily administration of Ostabolin-C™ in doses of 7.5, 15, 30, and 45 μg. Ostabolin-C™ is formulated as a clear, colorless liquid provided in pre-filled syringes and injected subcutaneously (SC). Subjects self-administer SC 0.1 mL injections of their assigned dose of Ostabolin-C™ 7.5, 15, 30, and 45 μg or placebo daily for 16 weeks in rotating quadrants of the abdomen. The subjects were post-menopausal women (for at least 5 years) with moderate osteoporosis.
The key endpoints for the study include change in mean BMD at the lumbar spine, as assessed by dual energy x-ray absorptiometry (DEXA), and measured by change from the Baseline visit. The Baseline visit is the first visit of the patient, before undergoing any treatment. Secondary efficacy endpoints include the following, as measured by change from Baseline visit:
DEXA: Bone formation and resorption markers: • Mean femoral neck BMD • Serum osteocalcin • Mean trochanter BMD • Serum amino terminal pro-peptide of type 1 pro-collagen (P1NP) • Mean total hip BMD • Mean radial BMD (distal and midshaft) • Bone specific alkaline phosphatase (BSAP) • Bone mineral content (BMC) • Serum C-telopeptide (CTx) • Bone area • Serum N-telopeptide (NTx)

We go through one compound from patent US20080176787A1, “Parathyroid hormone analogues and methods of use” (priority 2005, published 2008).

Like-named read-outs stand apart in the source and are kept apart here. Positions of bridges follow the written chain, without caps; N, C: chain ends. Residues, ends and D or L forms follow the SMILES beside them.

Usually bioavailability stands for dose-corrected exposure relative to a reference, in per cent. Broadly, the half-life is the time in which the quantity being followed falls by half. As usually defined, the Tmax is the time at which the peak concentration occurs.

As for `CC[C@H](C)[C@H](NC(=O)[C@H](CCC(=O)O)NC(=O)[C@H](CO)NC(=O)[C@@H](NC(=O)[C@@H](N)CO)C(C)C)C(=O)N[C@@H](CCC(N)=O)C(=O)N[C@@H](CC(C)C)C(=O)N[C@@H](CCSC)C(=O)N[C@@H](Cc1c[nH]cn1)C(=O)N[C@@H](CC(N)=O)C(=O)N[C@@H](CC(C)C)C(=O)NCC(=O)N[C@@H](CCCCN)C(=O)N[C@@H](Cc1c[nH]cn1)C(=O)N[C@@H](CC(C)C)C(=O)N[C@@H](CC(N)=O)C(=O)N[C@@H](CO)C(=O)N[C@@H](CCSC)C(=O)N[C@@H](CCC(=O)O)C(=O)N[C@@H](CCCN=C(N)N)C(=O)N[C@H](C(=O)N[C@H]1CCC(=O)NCCCC[C@@H](C(=O)N[C@@H](CC(C)C)C(=O)N[C@@H](CC(C)C)C(=O)N[C@@H](CCC(N)=O)C(=O)N[C@@H](CC(=O)O)C(=O)N[C@H](C(N)=O)C(C)C)NC(=O)[C@H](CCCN=C(N)N)NC(=O)[C@H](CC(C)C)NC(=O)[C@H](Cc2c[nH]c3ccccc23)NC1=O)C(C)C` [Ostabolin-C, [Leu^27]cyclo[Glu^22-Lys^26]-PTH-(1-31)-NH2] (H-SVSEIQLMHNLGKHLNSMERVEWLRKLLQDV-NH2; lactam 22-26), the bioavailability in series [1] (female, 200 ug/kg, IM, read-out: Absolute bioavailability) is 8.7%; in series [1] (female, 200 ug/kg, SC, read-out: Absolute bioavailability (Fabs)), below 2%. Moreover, in series [1] (female, 200 ug/kg, IV, not quantified, read-out: plasma concentrations at 2 minutes post the end of the infusion), the level at 2 min was above 610 ng/mL. Further, the Vd in series [1] (female, 200 ug/kg, IV, female rats, read-out: Vss) was 0.479 L/kg; in series [1] (female, 200 ug/kg, IV, female rats, read-out: Vz), 0.471 L/kg. The half-life in series [1] (female, other: SC, 200 ug/kg, SC, IM and IV dose routes, read-out: terminal elimination half life, where calculable) was 7.2 to 42.4 min. In series [1] (200 ug/kg, IV, female rats), the clearance was determined as 45.4 mL/min/kg. In addition, the Tmax in series [1] (IV, female rats, post end of infusion) was 5 min. Also, in series [2], the “Pts > 2.75 mmol/L (sustained)” value is reported as 0.
